Test results as given in US20150218516A1, “COMPOSITIONS AND METHODS FOR ENHANCING IMMUNE RESPONSES MEDIATED BY ANTIGEN-PRESENTING CELLS” (The Board of Regents of the University of Nebraska, priority 2007, published 2015).
Entries after “also recorded” stand apart in the source; their conditions may differ. Non-standard residues stand in square brackets, D forms with d. Residues, ends and D or L forms follow the SMILES beside them. No end group written: not given here.

Key:
MUC1 epitope peptide = test: Serum antibody response to MUC1 epitope peptide in immunized mice (RIA); type: in vivo, C57B16 and Balb/c mice; conditions: 100 μg i.p. with RIBI adjuvant, three immunizations, sera at 6 weeks
From the text: The strains of mice used for this example were inbred females 6 to 12 week old C57B16(H-2^b) and Balb/c (H-2^d), which were obtained from Jackson labs (Bar Harbor, Me.). […] The MUC1 peptide selected for these studies contained a motif that may bind to the H-2K^b molecule of the C57B16 mice; therefore, a strain of mouse that lacked this class I molecule binding motif (Balb/c) was also studied to determine the relative contribution of the class I binding motif to the antigen presentation properties of these peptides.
(§1) Preimmune sera were obtained from mice, which were subsequently immunized intraperitoneally with 100 μg of the indicated peptide with RIBI adjuvant (MPL+TDM+CWS) (Sigma Immunochemicals). Animals were boosted twice at two week intervals using the same injection procedure. Sera were obtained following three immunizations (at 6 weeks).
For radioimmunoassay (RIA), anti-peptide antibodies were determined, before and at different time points after immunization, in 96-well microtiter plates (Dynatech Laboratories, Inc.). Plates were coated with 50 μl of a 100 μg/ml appropriate peptide in phosphate-buffered saline (PBS) pH 7.4 solution overnight at 4° C. The wells were blocked by incubation with 5% dry milk in PBS pH 7.4 for at least two hours. Anti-peptide antibody titers were determined using serial dilutions of sera. The sera were diluted with PBS containing 0.05% Tween-20, pH 7.4 (washing buffer) and 50 μl of each dilution was incubated at 37° C. for 1 hour. The wells were then drained, washed 4 times with PBS-Tween and 50 μl of ^125I-goat anti-mouse Ab (1-2×10^4 cpm/well) was added and incubated for 1 hr at 25° C. After washing, specific radioactivity was recorded in a gamma counter (1272 CliniGamma, LKB).
Experimental groups were as follows: • Group A. mice immunized with peptide (1) • Group B. mice immunized with peptide (2) • Group C. mice immunized with peptide (1) plus peptide (2) • Group D. mice immunized with peptide (3) • Group E. mice immunized with peptide (4).

[1] = test system: P815S (HBsAg transfectant) target cells; test: HBsAg-specific CTL response of immunized mice, 51Cr-release cytotoxicity assay; type: in vivo, BALB/c mice; conditions: for Ag-specific CTL response (in words): two or three s.c. injections at 21 day intervals, no added adjuvant; for % Specific Lysis: s.c. in PBS
Experimental: Groups of six to eight BALB/c mice were given bilateral s.c. injections in the inguinal area with (100 al each side) of a PBS solution containing 50-100 μg of the peptides. Booster injections were given s.c. in the inguinal region at 21-day intervals. Sera for Ab analysis were obtained by retro-orbital bleeds of mice under CO2 narcosis.
Three weeks after secondary) (2° immunization and two weeks after tertiary)(3° immunization, two to three mice from each experimental group were sacrificed by cervical dislocation and their spleens removed aseptically. Pooled splenic single-cell suspensions were prepared in RPMI-1640 medium (Sigma, St. Louis, Mo.) containing 10% FBS (Hyclone, Salt Lake City, Utah) and the following supplements: 10 mM HEPES buffer, 50 μM 2-ME, 2 mM L-glutamine, 50 μg/ml gentamicin sulfate, 100 Um′ penicillin, and 50 μg/ml streptomycin (all supplements from Sigma). This supplemented complete medium is designated RP10-SC. For culture, 75×10^6 pooled spleen cells in 5 ml of RP10-SC were pipetted into a 25 cm^2 T-flask (Corning). Next, 5 ml of RP 10-SC containing 150 nM of synthetic, L^d MHC class I-restricted peptide, […] (SEQ ID NO:12) were added to the flask. The flasks were incubated undisturbed in an upright position at 37° C. in 5% CO2. After 4 days of incubation, the cells were recovered from the T-flasks, washed once by centrifugation in fresh RP10-SC, resuspended in 5 ml RP10-SC, counted, and adjusted to 5×10^6 viable cells/ml.
The specific cell target used for measuring CTL activity was P815S, a transfectant cell line of P815 (H-2^d) expressing the HBsAg (14). P815S was grown in RP10-SC medium containing 400 μg/ml geneticin disulfate (G418, Sigma). The parental H-2^d mastocytoma cell line, P815 (ATTC #TIB64) grown in RP10-SC medium, was used as a non-specific target for CTL assays to measure % non-specific lysis.
The target cells, either P815S or P815, were washed 2 times in RP10-SC. For labeling, 5×10^6 target cells were mixed with 250 μCi ^51Cr-sodium chromate[400-1200 Ci (14.8-44.4 TBq)]/[…]; NEN Dupont, Boston, Mass.) in a 1.0 ml volume in a 50 ml conical tube and incubated in a 37° C. water bath for 90 mins. After incubation, the labeled cells were washed 3 times by centrifugation using 15 ml volumes of fresh RP10-SC and allowed to stand at room temperature for 30 mins. The pelleted cells were resuspended in RP10-SC at 1×10^6 cells/ml.
The recovered splenic effector cells at 5×10^6 cells/ml were serially diluted in triplicate in wells of round-bottom 96 well plates (Corning, 25850) in a total volume of 100 al/well and using RP10-SC as the diluent. Next, 100 μl volumes of ^51Cr-labeled targets, P815S or P815, at 1×10^6 cells/ml were added to the wells. Maximum release (MR) wells contained 100 al of target cells and 100 al of 2% (v/v) Tween 20 while spontaneous release (SR) wells contained labeled cells in medium alone. Effector-to-target ratios of 50:1, 25:1, 12.5:1, and 6.25:1 were routinely employed. The plates were centrifuged at 400×g and incubated at 37° C. in 5% CO2 for 4 hrs. After incubation, the supernatant fractions in the wells were collected using a Skatron Supernatant Collection System (Skatron Instruments, Sterlin, Va.). The amount of ^51Cr radioactivity in the supernatant fractions was measured using a Wallac 1470 Wizard gamma counter (Turku, Finland).

human PMNs = test: MPO release from human PMNs; type: cell-based; conditions: for EC50: 50% maximum release of myeloperoxidase; for pD2 ± SE: −log EC50 (M), mean ± SE, n=3
Experimental: (§2) Statistical analysis of the values obtained from pharmacologic assays was performed using one-way analysis of variance (ANOVA).

human umbilical artery = test: Smooth muscle contraction of human umbilical artery; type: cell-based; conditions: for EC50: concentration resulting in 50% maximum contraction; for agonist behaviour relative to natural C5a (in words): umbilical artery contraction and MPO release assays; for pD2 ± SE: −log EC50 (M), mean ± SE, n=3
Experimental: as §2

MUC1 peptide = test: MUC1 specific antibody isotype titers in immunized mice (ELISA); type: in vivo, C57BL6 mice; conditions: for Ab titer IgA / Ab titer IgG1 / Ab titer IgG2a / Ab titer IgG2b / Ab titer IgG3 / Ab titer IgM: mean titer of responders, sera screened against MUC1 peptide, five mice
Experimental: as §1
Anti-peptide antibody isotype titers were determined by enzyme-linked immunosorbent assay (ELISA) carried out in 96-well microtiter plates. The plates were coated with 100 μg/ml of appropriate peptide in PBS, pH 7.4, and incubated overnight. The wells were blocked with 5% dry milk in PBS pH 7.4 for at least two hours. Anti-peptide titers were determined using serial dilutions of sera as described above. After the plates were washed 4 times, 50 μl of a 1:100 dilution of rabbit anti-mouse IgA, IgG1, IgG2a, IgG2b, IgG3 and IgM (Zymed) was added to each well and incubated at 25° C. for 1 hour. The plates were washed 4 times with washing buffer and 50 μl of 1:500 goat anti-rabbit conjugated to […] (Zymed) was incubated at 37° C. for 1 hour. Again, the plates were washed 4 times with washing buffer and bound enzyme was detected by the addition of 50 μl 1 mg/ml p-nitrophenyl phosphate (Sigma) in 10% diethanolamine (Sigma) pH 9.4. The reaction was stopped by the addition of 50 μl of 0.5 M sodium hydroxide and absorbance values (A405) were determined on Titertek Multiskan (Flow Laboratories, Irvine, Scotland).
The following experiment was performed in order to compare the potency of the molecular adjuvant of the present invention with a widely used method for enhancing the immune response to peptide epitopes. The objective was a direct comparison of the response to a construct of MUC1 epitope-C5a agonist and the same epitope conjugated to keyhole limpet hemocyanine (KLH) in mice.

[2] = Effector:Target 6.25:1, boost day 21, spleen cells day 42
[3] = Effector:Target 12.5:1, boost day 21, spleen cells day 42
[4] = Effector:Target 25:1, boost day 21, spleen cells day 42
[5] = Effector:Target 50:1, boost day 21, spleen cells day 42, restimulated 4 days with S28-39

Compound: YKQGGFLGL [reference compound]
- antibody response (in words) (MUC1 epitope peptide): no appreciable increase in antibody response

Compound: CC[C@H](C)[C@H](N)C(=O)N1CCC[C@H]1C(=O)N[C@@H](CCC(N)=O)C(=O)N[C@@H](CO)C(=O)N[C@@H](CC(C)C)C(=O)N[C@@H](CC(=O)O)C(=O)N[C@@H](CO)C(=O)N[C@@H](Cc1c[nH]c2ccccc12)C(=O)N[C@@H](Cc1c[nH]c2ccccc12)C(=O)N[C@H](C(=O)N[C@@H](CO)C(=O)N[C@@H](CC(C)C)C(=O)N[C@@H](CCCNC(=N)N)C(=O)N[C@H](C(=O)N[C@@H](CCCNC(=N)N)C(=O)N[C@@H](CCCNC(=N)N)C(=O)N[C@@H](Cc1ccc(O)cc1)C(=O)N[C@@H](CO)C(=O)N[C@@H](Cc1ccccc1)C(=O)N[C@@H](CCCCN)C(=O)N1CCC[C@H]1C(=O)N[C@@H](CCSC)C(=O)N1CCC[C@H]1C(=O)N[C@@H](CC(C)C)C(=O)N[C@H](C)C(=O)N[C@@H](CCCNC(=N)N)C(=O)O)C(C)C)[C@@H](C)O (H-IPQSLDSWWTSLRVRRYSFKPMPL[dA]R-OH)
- Ag-specific CTL response (in words) [1]: specific CTL response that was significantly above background levels; also recorded: robust CTL activity
- EC50 (human PMNs): 2150 nM
- pD2 ± SE (human PMNs): 5.61 ± 0.19
- EC50 (human umbilical artery): 180 nM
- agonist behaviour relative to natural C5a (in words) (human umbilical artery): full agonists
- pD2 ± SE (human umbilical artery): 6.67 ± 0.22

Compound: IPQSLDSWWTSL [HBsAg L^d MHC class I-restricted peptide S28-39, reference compound]
- % Specific Lysis [1, 2]: 3%
- % Specific Lysis [1, 3]: 3%
- % Specific Lysis [1, 4]: 5%
- % Specific Lysis [1, 5]: 7%

Compound: YKQGGFLGL-KLH (YKQGGFLGL-{KLH}; also: conjugated to KLH) [reference compound]
- Ab titer IgA (MUC1 peptide): 0
- Ab titer IgG1 (MUC1 peptide): 100
- Ab titer IgG2a (MUC1 peptide): 0
- Ab titer IgG2b (MUC1 peptide): 0
- Ab titer IgG3 (MUC1 peptide): 0
- Ab titer IgM (MUC1 peptide): 5010
- number of responders IgG1 (MUC1 peptide; responders / mice immunized): (2/5)
- number of responders IgM (MUC1 peptide; responders / mice immunized): (4/5)

Compound: YSFKPMPLaRKQGGFLGL (YSFKPMPL[dA]RKQGGFLGL)
- antibody response (in words) (MUC1 epitope peptide): immune responses were not produced

Compound: YKQGGFLGLYSFKPMPLaR
- antibody response (in words) (MUC1 epitope peptide; listed as MUC1 epitope/C5a agonist peptide conjugate): appreciable antibody response
- antibody response (in words) (MUC1 epitope peptide; listed as peptide 3): substantial responses
- isotypes of the anti-peptide antibodies produced (MUC1 peptide; FIG. 3): IgM, IgG2a, and IgG2b
- specificity of antibody response for the MUC1 epitope (MUC1 peptide; FIG. 4): high percentage of antibodies that are specific for the MUC1 epitope
- Ab titer IgA (MUC1 peptide): 0
- Ab titer IgG1 (MUC1 peptide): 0
- Ab titer IgG2a (MUC1 peptide): 1260
- Ab titer IgG2b (MUC1 peptide): 1780
- Ab titer IgG3 (MUC1 peptide): 0
- Ab titer IgM (MUC1 peptide): 6310
- number of responders IgG2a (MUC1 peptide; responders / mice immunized): (5/5)
- number of responders IgG2b (MUC1 peptide; responders / mice immunized): (5/5)
- number of responders IgM (MUC1 peptide; responders / mice immunized): (5/5)

Compound: CC[C@H](C)[C@H](N)C(=O)N1CCC[C@H]1C(=O)N[C@@H](CCC(N)=O)C(=O)N[C@@H](CO)C(=O)N[C@@H](CC(C)C)C(=O)N[C@@H](CC(=O)O)C(=O)N[C@@H](CO)C(=O)N[C@@H](Cc1c[nH]c2ccccc12)C(=O)N[C@@H](Cc1c[nH]c2ccccc12)C(=O)N[C@H](C(=O)N[C@@H](CO)C(=O)N[C@@H](CC(C)C)C(=O)N[C@@H](Cc1ccc(O)cc1)C(=O)N[C@@H](CO)C(=O)N[C@@H](Cc1ccccc1)C(=O)N[C@@H](CCCCN)C(=O)N1CCC[C@H]1C(=O)N[C@@H](CCSC)C(=O)N1CCC[C@H]1C(=O)N[C@@H](CC(C)C)C(=O)N[C@H](C)C(=O)N[C@@H](CCCNC(=N)N)C(=O)O)[C@@H](C)O (H-IPQSLDSWWTSLYSFKPMPL[dA]R-OH)
- % Specific Lysis [1, 2]: 1%
- % Specific Lysis [1, 3]: 2%
- % Specific Lysis [1, 4]: 4%
- % Specific Lysis [1, 5]: 6%
- Ag-specific CTL response (in words) [1]: lack of a CTL response
- EC50 (human PMNs): 1580 nM
- pD2 ± SE (human PMNs): 5.80 ± 0.04
- EC50 (human umbilical artery): 210 nM
- agonist behaviour relative to natural C5a (in words) (human umbilical artery): full agonists
- pD2 ± SE (human umbilical artery): 6.68 ± 0.17

Compound: IPQSLDSWWTSLRR [reference compound]
- % Specific Lysis [1, 2]: 0%
- % Specific Lysis [1, 3]: 1%
- % Specific Lysis [1, 4]: 2%
- % Specific Lysis [1, 5]: 2%
